# Earlier results in patent publication US20040023937A1, “Anti-cancer formulation” (Greystone Medical Group, Inc., priority 2002, published 2004).
# Key:
# MMP-2 = conditions: second of two gelatin degrading MMP's; reported
# MMP-9 = conditions: gelatin degrading matrix metalloproteinase; mechanism reported to be thought to involve it
# human fibrosarcoma cells = conditions: reported
smiles,measurement,setting,value
C[C@H]1[C@H](C)CC[C@]2(C(=O)O)CC[C@]3(C)C(=CC[C@@H]4[C@@]5(C)CC[C@H](O)C(C)(C)[C@@H]5CC[C@]43C)[C@H]12 [Ursolic acid],effect on MMP-2,MMP-2,no effect
same,down-regulation of MMP-9,MMP-9,down-regulation
same,anti-invasive activity,human fibrosarcoma cells,anti-invasive activity
